# Test results reported in US20170129932A1, “METHOD FOR PREPARING RECOMBINANT GLYCOPROTEIN HAVING HIGH SIALIC ACID CONTENT, THROUGH GLYCOSPHINGOLIPID SYNTHESIS CYCLE CONTROL” (KOREA ADVANCED INSTITUTE OF SCIENCE AND TECHNOLOGY, priority 2014, published 2017).
# Tests used:
# EC2-1H9 cell line [1] = details: WGA lectin blotting, EC2-1H9 cells, 1 μM EtDO-P4, FIGS. 1B and 1C
# Procedure: Particularly, in order to treat EtDO-P4, the cells (5×10^6) were cultured in 100-mm plates containing MEM-α supplemented with 10% dFBS for 24 hours. The cells were washed twice with serum-free MEM-α. Then, the cells were added with 1 μM EtDO-P4/MEM-α, followed by further culture for 48 hours.
# EC2-1H9 cell line [2] = test: Glycosphingolipid (GSL) extraction and TLC in EC2-1H9 cells; type: cell-based, Chinese hamster; details: 1 μM EtDO-P4, 48 hours, FIG. 1A
# Procedure: Glycosphingolipid (GSL) was sonicated for 30 minutes, followed by extraction using chloroform/methanol (C/M; 2:1, v/v) and isopropanol/hexane/water (IPA/H/W; 55:25:20 v/v/v). The GSL extract was dissolved in 0.1 M NaOH/MeOH, followed by culture for 2 hours at 40 °C. The extract was neutralized with 1 N HCl, to which hexane was added. The mixture stood for 5 minutes. The lower layer was evaporated in the N2 atmosphere, and the remaining part was dissolved in distilled water. The mixture was applied to […] (Varian, Palo Alto, Calif.). After washed with distilled water, total GSL was extracted with C/M, followed by evaporation. The residue dissolved in C/M was spotted on TLC plate (Silica Gel 60 F-254, Merck), followed by development in C/M/0.2% CaCl2 (55:40:10, v/v/v). The plate was then stained with 2% orcinol in 2 M H2SO4 by spraying.
compound,measurement,setting,value
"CCCCCCCCCCCCCCCC(=O)N[C@H](CN1CCCC1)[C@H](O)c1ccc2c(c1)OCCO2 [EtDO-P4, D-threo-1-(3′,4′-ethylenedioxy)-phenyl-2-palmitoylamino-3-pyrrolidino-1-propanol]",increase of sialic acid content of purified rhEpo,EC2-1H9 cell line [1],up to 22%
same,"major GSLs, GM1, GM2, and GM3",EC2-1H9 cell line [2],reduced completely
